The subject of test [1] is Nakaseomyces glabratus. Description: Antifungal activity against Candida glabrata ATCC 90030. The class given is functional.
Test [2] concerns Trichophyton mentagrophytes. Description: Antifungal activity against Trichophyton mentagrophytes after 5 days. The format is functional. As to conditions: 120 h.
In test [3] the test system is Cryptococcus neoformans. Description: Antifungal activity against Cryptococcus neoformans after 72 hrs. The class given is functional.
In test [4] the test system is Cryptococcus neoformans. As to the kind of experiment: Antifungal activity against Cryptococcus neoformans ATCC 32264 after 48 hrs by CLSI-based broth microdilution method. The note with it: ATCC 32264, 48 h. The class given is functional. A general note: Broth dilution looks for growth in wells or tubes with falling amounts of substance.
Test [5] concerns Nannizzia gypsea. As to the kind of experiment: Antifungal activity against Microsporum gypseum after 5 days. The format is functional. As to conditions: 120 h.
The subject of test [6] is Saccharomyces cerevisiae. As to the kind of experiment: Antifungal activity against Saccharomyces cerevisiae ATCC 9763 after 48 hrs by CLSI-based broth microdilution method. The note with it: ATCC 9763, 48 h. The format is functional.
In test [7] the test system is Candida tropicalis. Description: Antifungal activity against Candida tropicalis CCC 131-2000 after 48 hrs by CLSI-based broth microdilution method. The class given is functional. As to conditions: CCC 131-2000, 48 h.
Test [8] has as its system Trichophyton rubrum. Description: Antifungal activity against Trichophyton rubrum after 5 days. The format is functional. The note with it: 120 h.
The subject of test [9] is Candida albicans. As to the kind of experiment: Antifungal activity against Candida albicans ATCC 10231 after 48 hrs by CLSI-based broth microdilution method. The format is functional. As to conditions: ATCC 10231, 48 h.
Test [10] has as its system Cryptococcus gattii. As to the kind of experiment: Antifungal activity against Cryptococcus gattii after 72 hrs. The format is functional, Cryptococcus gattii VGI.
In test [11] the test system is Trichophyton tonsurans. Description: Antifungal activity against Trichophyton tonsurans after 5 days. The format is functional. As to conditions: 120 h.
The subject of test [12] is Cryptococcus neoformans. As to the kind of experiment: Antifungal activity against Cryptococcus neoformans. The format is functional.
Test [13] relates to Aspergillus fumigatus. Description: Antifungal activity against Aspergillus fumigatus. The format is functional.
Test [14] deals with Candida albicans. Description: Antifungal activity against Candida albicans. The format is functional, organism-based.
The test system of test [15] is Trichophyton rubrum. Description: Antifungal activity against Trichophyton rubrum. The format is functional.
The test system of test [16] is Nakaseomyces glabratus. Description: Antifungal activity against Candida glabrata 507 by microdilution method. The class given is functional.
Test [17] deals with Nakaseomyces glabratus. Description: Antifungal activity against Candida glabrata 493 by microdilution method. The format is functional.
For test [18], the system named is Pichia kudriavzevii. Description: Antifungal activity against Candida krusei 168 by microdilution method. The format is functional.
For test [19], the system named is Nakaseomyces glabratus. Description: Antifungal activity against Candida glabrata 587 by microdilution method. The format is functional.
Test [20] deals with Candida albicans. Description: Antifungal activity against Candida albicans 498 by microdilution method. The class given is functional.
Test [21] concerns Nakaseomyces glabratus. Description: Antifungal activity against Candida glabrata 531 by microdilution method. The format is functional.
In test [22] the test system is Candida albicans. As to the kind of experiment: Antifungal activity against Candida albicans 53 by microdilution method. The format is functional.
Test [23] concerns Candida albicans. Description: Antifungal activity against Candida albicans ATCC 10231 by microdilution method. The format is functional.
In test [24] the test system is Candida parapsilosis. Description: Antifungal activity against Candida parapsilosis 96 by microdilution method. The class given is functional. The note with it: Lodderomyces parapsilosis.
The test system of test [25] is Candida tropicalis. As to the kind of experiment: Antifungal activity against Candida tropicalis 166 by microdilution method. The format is functional.
Test [26] concerns Nakaseomyces glabratus. Description: Antifungal activity against Candida glabrata 482 by microdilution method. The format is functional.
The test system of test [27] is Candida albicans. Description: Antifungal activity against Candida albicans 501 by microdilution method. The format is functional.
Test [28] relates to Nakaseomyces glabratus. As to the kind of experiment: Antifungal activity against Candida glabrata 510 by microdilution method. The format is functional.

Converted amounts (≈) assume the structure as drawn.

As for `O=c1c(O[C@@H]2O[C@H](CO)[C@@H](O)[C@H](O)[C@H]2O)c(-c2cc(O)c(O)c(O)c2)oc2cc(O)cc(O)c12`, the MIC (commonly the least concentration at which growth counts as inhibited) was 8.53 µg/mL (≈ 17.8 µM) in test [1]; 4 to 128 µg/mL (≈ 8.33 to 266 µM) in test [2]; 8 to 128 µg/mL (≈ 16.7 to 266 µM) in [3]; 31.2 µg/mL (≈ 64.9 µM) in [4]; 4 to 128 µg/mL (≈ 8.33 to 266 µM) in [5]; 31.2 µg/mL (≈ 64.9 µM) in test [6]. Besides, the MIC was 31.2 µg/mL (≈ 64.9 µM) in test [7]; 4 to 128 µg/mL (≈ 8.33 to 266 µM) in test [8]; 31.2 µg/mL (≈ 64.9 µM) in test [9]; 128 µg/mL (≈ 266 µM) in test [10]; 4 to 128 µg/mL (≈ 8.33 to 266 µM) in [11].
`Cc1c(O)c2c(c(C(=O)/C=C/c3ccccc3)c1O)OC(C)(C)C=C2`: the figures for the MIC in test [12] and in test [13] were 4 to 8 µg/mL (≈ 11.9 to 23.8 µM) and 16 µg/mL (≈ 47.6 µM), respectively.
For `C=CC(C)(C)c1cc([C@@H]2CC(=O)c3c(O)cc(O)c(CC=C(C)C)c3O2)c(O)cc1O`, in test [14], half-maximal inhibition (IC50) required 121 µM and the MIC stood at 121 µg/mL (≈ 285 µM).
Consider `CC(=O)c1c(O)c(C)c(O)c(Cc2c(O)c(C(=O)/C=C/c3ccc(O)cc3)c3c(c2O)[C@@H]2Oc4c(Cc5c(O)c(O)c(O)c(C(C)=O)c5O)c(O)c(C(=O)/C=C/c5ccc(O)cc5)c5c4[C@H](CC(C)(C)O5)[C@H]2C(C)(C)O3)c1O`, for which the MIC50 (usually the lowest concentration that inhibits either 50% of growth or 50% of the strains tested, depending on the study) in test [12] is 4 to 8 µg/mL (≈ 3.75 to 7.5 µM); in test [13], 16 µg/mL (≈ 15 µM).
Take `C=C(C)CC(O)c1c(O)ccc(C(=O)/C=C/c2ccc(O)cc2)c1O` (configuration not stated): the MIC50 in [14] is 15 µg/mL (≈ 44.1 µM); in [12], 7 µg/mL (≈ 20.6 µM).
As for `COc1cc(O)cc2oc(-c3cc(O)c(O)c(O)c3)c(O)c(=O)c12`, the MIC in [1] is 6.79 to 15.4 µg/mL (≈ 20.4 to 46.3 µM); in test [2], 4 to 128 µg/mL (≈ 12 to 385 µM); in test [3], 8 to 128 µg/mL (≈ 24.1 to 385 µM); in test [4], 31.2 µg/mL (≈ 93.9 µM); in [5], 4 to 128 µg/mL (≈ 12 to 385 µM); in [6], 31.2 µg/mL (≈ 93.9 µM). Moreover, the MIC in [7] is 31.2 µg/mL (≈ 93.9 µM); in test [8], 4 to 128 µg/mL (≈ 12 to 385 µM); in test [9], 31.2 µg/mL (≈ 93.9 µM); in [10] it was 128 µg/mL (≈ 385 µM); in test [11], 4 to 128 µg/mL (≈ 12 to 385 µM).
Regarding `Nc1ccccc1C(=O)/C=C/c1ccc([N+](=O)[O-])cc1`, in [15], it took 0.5 µg/mL (≈ 1.86 µM) to inhibit growth (MIC).
On the same count and under the same terms, then `Nc1ccccc1C(=O)/C=C/c1cccc(F)c1`, with 0.5 µg/mL (≈ 2.07 µM).
As for `O=C(/C=C/c1ccc(Cl)cc1Cl)c1ccc(/N=N/c2c(O)cccc2O)cc1`, the MIC in [14] was found to be 15 µg/mL (≈ 36.3 µM); in [13] it was 31.2 µg/mL (≈ 75.6 µM).
With `C[C@@H]1O[C@@H](Oc2c(-c3cc(O)c(O)c(O)c3)oc3cc(O)cc(O)c3c2=O)[C@H](O)[C@H](O)[C@H]1O`, the MIC in test [16] is 3.9 to 7.8 µg/mL (≈ 8.4 to 16.8 µM); in [17] it was 3.9 to 7.8 µg/mL (≈ 8.4 to 16.8 µM); in test [18], greater than 83 µg/mL; in test [19], 3.9 to 7.8 µg/mL (≈ 8.4 to 16.8 µM); in [20] it was greater than 83 µg/mL; in test [21], 3.9 to 7.8 µg/mL (≈ 8.4 to 16.8 µM). Besides, the MIC in test [22] is greater than 83 µg/mL; in test [23] it was greater than 83 µg/mL; in test [24] it was greater than 83 µg/mL; in test [25], greater than 83 µg/mL; in [26] it was 3.9 to 7.8 µg/mL (≈ 8.4 to 16.8 µM); in [27], greater than 83 µg/mL. The compound further displayed an MIC in test [28] of 3.9 to 7.8 µg/mL (≈ 8.4 to 16.8 µM).
